Results published in the NIST ThermoML archive (doi:10.1016/j.jct.2011.04.022).
Several values for one entry are separate records, joined by “and”; a condition that tells them apart may be missing. Equal values may be shown once. Numbers after ± are expanded uncertainties.

Legend:
[1] = molar enthalpy of vaporization or sublimation; conditions: 298.15 K; Crystal; Second Law analysis of vapor pressure data
[2] = Crystal, Calculated from knudsen effusion weight loss

Nc1ccccc1-n1cccc1 [1-(2-aminophenyl)pyrrole]
Conditions | molar enthalpy [kJ/mol]
[1] | 98.8 ± 0.8

[2]
Conditions | vapor or sublimation pressure
296.12 K | 6.43e-05 ± 3.2e-06 kPa and 6.33e-05 ± 3.2e-06 kPa and 6.58e-05 ± 3.3e-06 kPa
298.22 K | 8.56e-05 ± 4.3e-06 kPa and 8.51e-05 ± 4.3e-06 kPa and 8.36e-05 ± 4.2e-06 kPa
300.2 K | 0.000112 ± 6e-06 kPa and 0.000108 ± 5e-06 kPa and 0.000107 ± 5e-06 kPa
302.11 K | 0.000137 ± 7e-06 kPa and 0.000144 ± 7e-06 kPa
304.19 K | 0.000179 ± 9e-06 kPa and 0.000182 ± 9e-06 kPa and 0.000178 ± 9e-06 kPa
306.19 K | 0.00024 ± 1.2e-05 kPa and 0.000228 ± 1.1e-05 kPa and 0.000227 ± 1.1e-05 kPa
308.08 K | 0.000301 ± 1.5e-05 kPa and 0.0003 ± 1.5e-05 kPa and 0.000297 ± 1.5e-05 kPa
310.2 K | 0.000388 ± 1.9e-05 kPa and 0.000386 ± 1.9e-05 kPa and 0.000377 ± 1.9e-05 kPa
312.2 K | 0.000503 ± 2.5e-05 kPa and 0.000481 ± 2.4e-05 kPa and 0.00048 ± 2.4e-05 kPa
314.11 K | 0.000643 ± 3.2e-05 kPa and 0.000635 ± 3.2e-05 kPa and 0.000623 ± 3.1e-05 kPa
316.18 K | 0.000816 ± 4.1e-05 kPa and 0.000808 ± 4e-05 kPa and 0.000788 ± 3.9e-05 kPa
318.18 K | 0.001059 ± 0.00011 kPa and 0.001011 ± 0.0001 kPa and 0.000991 ± 5e-05 kPa
